Measured values: patent publication US20240165094A1, “METHODS AND COMPOSITIONS FOR TREATING MELANOMA” (INSTITUT NATIONAL DE LA SANTÉ ET DE LA RECHERCHE MÉDICALE, priority 2021, published 2024)

What was measured:
M238R cells [1] = assay: Viability assay (crystal violet staining of attached cells), BRAFi-resistant cells; format: cell-based, human; settings: 3 days
Description: FIG. 1. Nintedanib sensitizes melanoma cells to BRAFi/MEKi therapy and prevents BRAFi/MEKi-driven ECM remodeling. (A) BRAFi-resistant M238R cells were treated with vehicle (Ctrl), Nintedanib (2 μM), Vemurafenib and Trametinib (BRAFi/MEKi, 5 μM) or Vemurafenib/Trametinib (5 μM) plus Nintedanib (2 μM) for 3 days. Cell viability was assessed by crystal violet staining of attached cells. (B) BRAFi-sensitive parental M238P cells were treated with vehicle (Ctrl), Nintedanib (2 μM) Vemurafenib and Trametinib (BRAFi/MEKi, 1 μM) or Vemurafenib/Trametinib (1 μM) plus Nintedanib (2 μM) for 3 days. Cell viability was assessed by crystal violet staining of attached cells. Paired Student t-test has been used for statistical analysis. ****P≤0.0001. Data is represented as mean ±SE from a triplicate representative of at least 3 independent experiments.
The isogenic pair of Vemurafenib-sensitive and -resistant human BRAF-mutated melanoma cells M238 was provided by R. Lo (Nazarian et al., 2010). YUMM1.7 mouse melanoma cells were a kind gift from M. Bosenberg (Meeth et al., 2016). […]
After the indicated treatments, cells were stained with 0.04% crystal violet, 20% ethanol in PBS for 30 min. […] The crystal violet dye is solubilized by 10% acetic acid in PBS and measured by absorbance at 595 nm.

M238P cells = assay: Viability assay (crystal violet staining of attached cells), BRAFi-sensitive parental cells; format: cell-based, human; settings: 3 days
Description: Melanoma cells were cultured in Dulbecco's modified Eagle medium (DMEM) supplemented with 7% FBS (Hyclone) and 1% penicillin/streptomycin. Resistant cells were continuously exposed to 1 μM of Vemurafenib. […] BRAFi (PLX4032, Vemurafenib), MEKi (GSK1120212, Trametinib) and Nintedanib (BIBF1120) were from Selleckem.

M238R cells [2] = assay: Real-time quantitative PCR gene expression in BRAFi-resistant cells; format: cell-based, human; settings: data not shown
Description: (§1) Total RNA was extracted from tumors and cell samples with the miRNeasy Mini Kit (Qiagen) according to the manufacturer's instructions.
(§2) 1 μg of extracted RNA from cells was reverse transcribed into cDNA using the Multiscribe reverse transcriptase kit provided by Applied Biosystems. Primers were designed using PrimerBank or adopted from published studies. Gene expression levels were measured using Platinum SYBR Green qPCR Supermix (Fisher Scientific) and Step One thermocycler (Applied Biosystem). Results from qPCR were normalized using the reference gene RPL32 and relative gene expression was quantified with the ΔΔCt method. Heatmaps describing gene expression fold changes were prepared using MeV software. cDNAs from tumors were prepared from 100 ng of RNA using Fluidigm Reverse Transcription Master Mix (Fluidigm PN 100-647297). Following a pre-amplification step (Fluidigm® PreAmp Master Mix and DELTAgene™ Assay kits) and exonuclease I treatment, samples diluted in Eva-Green® Supermix with Low ROX were loaded with primer reaction mixes in 96.96 Dynamic Array™ IFCs. Gene expression was then assessed on a Fluidigm BioMark HD instrument. Data were analyzed with real-time PCR analysis software (Fluidigm Corporation), and presented as relative gene expression according to the ΔΔCt method. Heat maps depicting fold changes of gene expression were prepared using MeV software.

M238P melanoma cells = assay: Real-time quantitative PCR gene expression in BRAFi-sensitive cells; format: cell-based, human; settings: data not shown
Description: as §1, §2

[3] = tested on: YUMM1.7 Braf-mutant melanoma; assay: Syngenic model of murine YUMM1.7 Braf-mutant melanoma: tumor growth, relapse, survival; format: in vivo, mouse
Excerpt: FIG. 2. Nintedanib enhances MAPK-targeted therapy efficacy, delays tumor relapse, improves mice survival and normalizes the pro-fibrotic stromal reaction. Kaplan-Meier survival curves of mice treated with vehicle, Nintedanib, MAPK-targeted therapy (BRAFi+MEKi) or MAPK-targeted therapy plus Nintedanib. Log rank (Mantel-Cox) statistical test was used for MAPK-targeted therapy vs MAPK targeted therapy/Nintedanib. ****p<0.0001.
FIG. 4. Nintedanib, but not Pirfenidone, enhances MAPK-targeted therapy efficacy and delays tumor relapse. Mouse YUMM1.7 cells were injected s.c. into syngeneic C57BL/6 mice. When tumor volume reached 100 mm3, mice were administered vehicle, BRAFi+MEKi combination, Nintedanib, Pirfenidone or the triple combinations of BRAFi+MEKi and Nintedanib or BRAFi+MEKi and Pirfenidone. Representative median graphics show tumor growth following treatment (n=3 mice per group). Treatment: Oral gavage 3 times per week. Vemurafenib (BRAFi): 30 mg/kg; Trametinib (MEKi): 0.3 mg/kg; Nintedanib: 50 mg/kg; Pirfenidone: 100 mg/kg. Oral gavage 3 times per week.
Mouse experiments were carried out according to the Institutional Animal Care and the local ethical committee. 4×105 YUMNI1.7 cells were injected in both flanks of C57BL/6 mice. Tumors were measured with caliper and treatments were started when the tumors reached a volume of 0.1 cm3, after randomization of mice into control and test groups. Vemurafenib (30 mg/kg), Trametinib (0.3 mg/kg), and Nintedanib (50 mg/kg) were administered by oral gavage three times per week. Control mice were treated with vehicle only. Animals were sacrificed when the tumors reached a volume of 1 cm3. After animal sacrifice, tumors were dissected, weighed and snap-frozen in liquid nitrogen for RNA or protein extraction and immunofluorescence analysis (embedded in OCT from Tissue-Tek). Tumors for picrosirius red staining were fixed in formalin.

YUMM 1.7 tumors = assay: ECM remodeling in YUMM1.7 tumors (picrosirius red collagen staining, qPCR of ECM, myofibroblast and pro-fibrotic markers); format: in vivo, mouse; settings: co-administration of Nintedanib with MAPKi; data not shown
Description: as §2, with “Heatmaps describing gene expression fold changes were prepared using MeV software. cDNAs from tumors were prepared from 100 ng of RNA using Fluidigm Reverse Transcription Master Mix (Fluidigm PN 100-647297).” left out, “[…])” for “DELTAgene™ Assay kits)”, “ArrayTM” for “Array™”, “software. Collagen in paraffin-embedded tumors was stained with picrosirius red using standard protocols as described (Girard et al., 2020). Tumor sections were analyzed by polarized light microscopy. Images were acquired under polarized illumination using a light transmission microscope (Zeiss PALM, at 10× magnification). […]” for “software.”

COC(=O)c1ccc2c(c1)NC(=O)/C2=C(\Nc1ccc(N(C)C(=O)CN2CCN(C)CC2)cc1)c1ccccc1 [Nintedanib]
cell survival (viability) (M238R cells [1]; BRAFi-resistant M238R cells, Nintedanib alone (2 μM)): no effect | sensitivity to BRAF and MEK co-inhibition (cell viability) (M238R cells [1]; M238R cells, Nintedanib 2 μM plus Vemurafenib/Trametinib 5 μM): restored sensitivity | cell survival (viability) (M238P cells; BRAFi-sensitive M238P cells, Nintedanib alone (2 μM)): no effect | effect on the inhibitory effect of BRAFi plus MEKi on cell viability (M238P cells; M238P cells, Nintedanib 2 μM plus Vemurafenib/Trametinib 1 μM): potentiated significantly the inhibitory effect | ECM and fibrotic-like signature (M238R cells [2]; Nintedanib at two different doses): reverted | PDL1 expression (M238R cells [2]): reduced | BRAFi-induced ECM-related signature and myofibroblast markers such as ACTA2, MYL9 and LOXL2 (M238P melanoma cells): strongly attenuated | differentiation marker MITF expression (M238P melanoma cells; under BRAFi): prevented the downregulation | gene expression of phenotypic markers such as PDL1 and NGFR (M238P melanoma cells; under BRAFi): reduced | effect on MAPK-targeted therapy efficacy and tumor relapse ([3]; BRAFi/MEKi-treated YUMM1.7 melanoma, n=3, Nintedanib 50 mg/kg or Pirfenidone 100 mg/kg added to Vemurafenib 30 mg/kg + Trametinib 0.3 mg/kg): enhances MAPK-targeted therapy efficacy and prevents tumor relapse | anti-melanoma effect ([3]; YUMM1.7 s.c. in C57BL/6 mice, Nintedanib 50 mg/kg alone, oral gavage three times per week): did not display any anti-melanoma effect | tumor growth ([3]; YUMM1.7 s.c. in C57BL/6 mice, oral gavage three times per week): slightly slowing down tumor growth but not triggering tumor volume decrease | MAPKi-induced ECM remodeling responses in tumors (YUMM 1.7 tumors): suppressed
